Laboratory results as given in US20230333087A1, “METHODS FOR MONITORING PATIENT RESPONSE TO TREATMENT OF RETINAL OXIDATIVE DISEASES” (BioJiva LLC, priority 2022, published 2023).

What was measured:
[1] = test system: 4-HNE and 4-HHE formation; details: present in lipid bilayers; cited from earlier work
[2] = clinical trials; cited from earlier work
[3] = test system: LPO and cell death; details: FRDA, INAD, PSP; cited from earlier work
[4] = test system: iron-induced retinal autofluorescence and degeneration; assay: Iron-induced retinal autofluorescence and degeneration, cSLO and OCT imaging 1 week after intravitreal iron; assay type: in vivo, C57BL/6J mice; details: DHA diet versus previous study with regular chow without DHA (LabDiet 5001)
Procedure: To evaluate the protective effect of 0.25% D-DHA diet, confocal scanning laser ophthalmoscopy (cSLO) and optical coherence tomography (OCT) were employed for in vivo imaging at 1 week after injections. For the cSLO imaging, both blue autofluorescence (BAF) and near-infra autofluorescence (IRAF) were performed.
Adult male wild-type C57BL/6J mice (Stock No.000664, Jackson Labs, Bar Harbor, ME, USA) were housed in standard conditions under cyclic light (12 h:12 h light-dark cycle). Mice had ad libitum access to water and food. Beginning at 2 mo of age, mice were placed on the AIN93G diet described above, supplemented with 0.25% D-DHA or DHA (control diet) for 1 week, 2 weeks, 3 weeks, or 4 weeks prior to the intravitreal injection. Mice were given an intravitreal injection of 1 µl 0.5 mM ferric ammonium citrate diluted in 0.9% NaCl (saline) (MP Biomedicals LLC, Santa Ana, CA) or
1 µl of saline as control. Intravitreal injections were performed as previously described ^54. Mice were continued on respective diet until their final evaluation. All housing and procedures were performed according to the NIH Guide for the Care and Use of Experimental Animals and approved by the University of Pennsylvania Animal Care and Use Committee.
Mice were given general anesthesia and placed on a platform. Pupils were dilated with 1% tropicamide saline solution (Akorn, Inc., Lake Forest, IL). Optical coherence tomography (OCT) imaging was performed for visualization of the retinal structure by using a Bioptigen
Envisu (R2200, Bioptigen Inc., Durham, NC, USA) coupled to a broadband LED light source (T870-HP, Superlum Diodes, Ltd, Ireland). Confocal scanning laser ophthalmoscopy (cSLO) (Spectralis HRA, Heidelberg Engineering, Franklin, MA, USA) was used for visualization of retinal AF using BluePeak™ or simply blue AF (488 nm excitation) and near-infrared AF (787 nm excitation) imaging modes.

[5] = test system: human RPE cell line ARPE-19; details: high-intensity light exposure; cited from earlier work

Compound: [2H]C([2H])(/C=C\CCCCC)/C=C\CCCCCCCC(=O)O [D2-linoleic acid]
- 4-HNE and 4-HHE formation [1]: downregulated not just 4-HNE but also 4-HHE formation

Compound: [2H]C([2H])(/C=C\CCCCC)/C=C\CCCCCCCC(=O)OCC [RT001, 11,11-D2-Lin]
- safety and tolerability [2]: notable safety and tolerability
- LPO and cell death [3]: inhibited LPO and rescued cell death

Compound: docosahexaenoic acid [DHA, reference compound]
- severity of IVT iron induced damage [4]: less severe
- oxidative stress and LPO [5]: increased oxidative stress and LPO
